This note sets out measurements from ChEMBL document CHEMBL4483862, “Open-source discovery of chemical leads for next-generation chemoprotective antimalarials” (2018).

For the test, the system named is Plasmodium berghei. Description: Luciferase/luciferin-expressing antifolate-resistant parasites were used to infect a culture of HepG2 cells that were pre-incubated with compounds. Infected hepatocytes emit light due to the luciferase reaction. Assay results are presented as the percent inhibition of light emission compared to control. […]. The test is classed as functional. To be noted: sporozoite; for IC90: read-out: LUCIFERASE INFECTION ASSAY - IC90.

The mark [1] stands for this setting: read-out: LUCIFERASE INFECTION ASSAY - IC50.

pIC50: −log10 of the molar value.

Consider `O=C1NC(=O)/C(=C\c2ccc(Cl)c(Cl)c2)N1`, for which the IC90 is 5.37 µM. Also, the pIC50 (HEPG2TOX_HILL_SLOPE 1.44, HEPG2TOX_R_SQUARED 0.948, PBLUC_HILL_SLOPE 2.09, PBLUC_R_SQUARED 0.686, read-out: LUCIFERASE INFECTION ASSAY - IC50) was 5.73.

With `Cn1nc(-c2ccc(-c3ccnc(SCC(=O)c4ccccc4)n3)s2)cc1C(F)(F)F`, the IC90 is more than 7.17 µM. For the same molecule, under “FFLUC_HILL_SLOPE 0.544, FFLUC_R_SQUARED 0.175, read-out: LUCIFERASE INFECTION ASSAY - IC50”, the pIC50 is less than 5.14.

`O=[N+]([O-])c1cccc2nc(/C=C/c3nn(Cc4ccccc4)cc3-c3cccnc3)ccc12`: the IC90 is more than 10 µM. Moreover, the pIC50 under setting [1] is less than 5.00.

In the case of `O=S(=O)(Nc1ccc(C(F)(F)F)cc1)c1ccc(S(=O)(=O)c2ncc(C(F)(F)F)cc2Cl)s1`, the IC90 was more than 5.99 µM. Under “FFLUC_HILL_SLOPE 15.7, FFLUC_R_SQUARED 0.198, HEPG2TOX_HILL_SLOPE 0.681, HEPG2TOX_R_SQUARED 0.155, read-out: LUCIFERASE INFECTION ASSAY - IC50”, the pIC50 was less than 5.22.

`CCc1cccc2c(/C=C3\C(=O)Nc4ccccc43)c[nH]c12`: the IC90 was more than 10 µM. In addition, the pIC50 under setting [1] is 5.22.

With `Clc1ccc(-c2cnc3cnc(-c4cccnc4)cn23)cc1`, the IC90 came to 1.8 µM. In addition, the pIC50 (HEPG2TOX_HILL_SLOPE 2.16, HEPG2TOX_R_SQUARED 0.901, PBLUC_HILL_SLOPE 2.19, PBLUC_R_SQUARED 0.923, read-out: LUCIFERASE INFECTION ASSAY - IC50) was 6.18.

With `N#Cc1cc([N+](=O)[O-])ccc1Sc1nnc(C2COc3ccccc3O2)n1-c1ccccc1` (stereo unspecified), the IC90 is more than 10 µM. Further, the pIC50 under setting [1] was less than 5.00.

Regarding `CC(C)c1ccc(Nc2ncnc(N)n2)c(Br)c1`, the IC90 is more than 10.7 µM. The pIC50 under setting [1] was less than 4.97.

In the case of `COC(=O)c1c(NC(C)=O)c2cc(NCC3CC=CCC3)cnc2n1CCc1c[nH]c2ccccc12` (stereo unspecified), the IC90 was more than 6.8 µM. In addition, where the note is “PBLUC_HILL_SLOPE 16.1, PBLUC_R_SQUARED 0.211, read-out: LUCIFERASE INFECTION ASSAY - IC50”, the pIC50 is 5.18.

Consider `CC(C)(C)c1ccc(C(=O)Nc2nnc(Sc3ccc([N+](=O)[O-])cc3C#N)s2)cc1`, for which the IC90 stood at 4.98 µM. Further, the pIC50 (PBLUC_HILL_SLOPE 0.682, PBLUC_R_SQUARED 0.567, read-out: LUCIFERASE INFECTION ASSAY - IC50) is 6.70.

On to `Cc1ccc2nc(NC(=O)c3cccc(F)c3)c(C(=O)NC3CCCCC3)n2c1`, for which the IC90 came to 0.924 µM. Also, where the note is “HEPG2TOX_HILL_SLOPE 1.74, HEPG2TOX_R_SQUARED 0.865, PBLUC_HILL_SLOPE 15.6, PBLUC_R_SQUARED 0.75, read-out: LUCIFERASE INFECTION ASSAY - IC50”, the pIC50 was 6.10.

Take `Cc1ccc(NC(=S)NC2CCCCCCCCCCC2)cc1Cl`: the IC90 turned out to be 8.43 µM. Moreover, where the note is “HEPG2TOX_HILL_SLOPE 11.3, HEPG2TOX_R_SQUARED 0.761, PBLUC_HILL_SLOPE 19.1, PBLUC_R_SQUARED 0.333, read-out: LUCIFERASE INFECTION ASSAY - IC50”, the pIC50 was 5.12.

`Cc1cnc(NC(=O)C2CCN(S(=O)(=O)c3ccc(Cl)cc3)CC2)s1`: the IC90 came out at 3.13 µM. Moreover, the pIC50 (PBLUC_HILL_SLOPE 19, PBLUC_R_SQUARED 0.695, read-out: LUCIFERASE INFECTION ASSAY - IC50) was 5.55.

With `COC(=O)c1cc(C(=O)OC)cc(-n2c(C)cc(C(O)(C(=O)OC)C(F)(F)F)c2C)c1` (stereo unspecified), the IC90 is more than 10 µM. Also, under setting [1], the pIC50 was less than 5.00.

As for `CC(C)Cc1ccc(CN2CCC3(CC2)C(=O)N(CC(C)C)C(=O)N3C)cc1`, the 90% effect concentration (IC90) was more than 8.56 µM. Besides, the negative logarithm of the IC50 (pIC50) (HEPG2TOX_HILL_SLOPE 2.88, HEPG2TOX_R_SQUARED 0.972, PBLUC_HILL_SLOPE 3.02, PBLUC_R_SQUARED 0.492, read-out: LUCIFERASE INFECTION ASSAY - IC50) was 5.30.

For `CC(C)C(C(=O)Nc1ccc(C#N)cc1)c1ccc(Cl)cc1` (stereo unspecified), the IC90 was more than 10 µM. Moreover, the pIC50 (HEPG2TOX_HILL_SLOPE 0.183, HEPG2TOX_R_SQUARED 0.415, read-out: LUCIFERASE INFECTION ASSAY - IC50) is less than 5.00.

Regarding `COc1ccccc1-c1cc2c(Nc3ccc4c(c3)OCCO4)nccc2n1C`, the IC90 amounted to 4.78 µM. The pIC50 under setting [1] is 5.62.

For `c1cncc(-c2cnc3sc(NCc4ccncc4)nn23)c1`, the IC90 is more than 10.7 µM. For the same molecule, the pIC50 (PBLUC_HILL_SLOPE 12.5, PBLUC_R_SQUARED 0.401, read-out: LUCIFERASE INFECTION ASSAY - IC50) is 5.00.

With `Oc1c(Cl)cc(Cl)cc1C1Nc2cc(Cl)c(C(F)(F)F)cc2N1` (stereo unspecified), the IC90 was 0.127 µM. The pIC50 (HEPG2TOX_HILL_SLOPE 1.05, HEPG2TOX_R_SQUARED 0.96, PBLUC_HILL_SLOPE 13.2, PBLUC_R_SQUARED 0.588, read-out: LUCIFERASE INFECTION ASSAY - IC50) was 6.97.

With `O=C(Nc1ccc2c(c1)OCO2)c1csc(C(O)c2cccc(C(F)(F)F)c2)n1` (stereo unspecified), the IC90 is more than 10 µM. Further, the pIC50 under setting [1] was less than 5.00.

On to `COc1ccc(CC(N)c2csc(NC(=O)Nc3ccccc3Oc3ccccc3)n2)cc1` (stereo unspecified), for which the IC90 is more than 7.17 µM. For the same molecule, the pIC50 under setting [1] is less than 5.14.

In the case of `COc1cccc(C(=O)Nc2ccc(Sc3cccc(C(F)(F)F)c3)c(C#N)c2)c1`, the concentration for an effect of 90% (IC90) is more than 7.7 µM. The pIC50 under setting [1] was less than 5.11.

As for `Clc1ccc(-c2csc(NCC3CCCO3)n2)cc1` (stereo unspecified), the concentration for an effect of 90% (IC90) was more than 11.2 µM. For the same molecule, the pIC50 under setting [1] was less than 4.95.

Take `COc1ccc(-c2cc([N+](=O)[O-])ccc2OCC(=O)NC(=O)NCCC(C)C)cc1`: the IC90 is more than 10 µM. Further, the pIC50 (PBLUC_HILL_SLOPE 8.25, PBLUC_R_SQUARED 0.103, read-out: LUCIFERASE INFECTION ASSAY - IC50) was 5.03.

Regarding `O=C(Nc1nc2ccccc2[nH]1)c1ccc(Cl)c(S(=O)(=O)N2CCc3ccccc32)c1`, the IC90 was more than 10 µM. The pIC50 (HEPG2TOX_HILL_SLOPE 9.78, HEPG2TOX_R_SQUARED 0.833, PBLUC_HILL_SLOPE 14, PBLUC_R_SQUARED 0.17, read-out: LUCIFERASE INFECTION ASSAY - IC50) is 5.06.

As to `COc1ccc(OC)c(C(=O)/C=C/c2cc(Br)cs2)c1`, the IC90 came out at 5.17 µM. In addition, the pIC50 (HEPG2TOX_HILL_SLOPE 14.7, HEPG2TOX_R_SQUARED 0.849, PBLUC_HILL_SLOPE 92.6, PBLUC_R_SQUARED 0.363, read-out: LUCIFERASE INFECTION ASSAY - IC50) was 5.30.

Turning to `NNc1nc(C(F)(F)F)nc2c1cnn2-c1ccccc1`, the IC90 stood at 5.03 µM. Moreover, under “PBLUC_HILL_SLOPE 6.68, PBLUC_R_SQUARED 0.4, read-out: LUCIFERASE INFECTION ASSAY - IC50”, the pIC50 is 5.44.

In the case of `Oc1cc(C(F)(F)F)nc2ccc(F)cc12`, the IC90 was more than 14.3 µM. For the same molecule, the pIC50 (PBLUC_HILL_SLOPE 1.66, PBLUC_R_SQUARED 0.446, read-out: LUCIFERASE INFECTION ASSAY - IC50) is 5.18.

Regarding `COc1ccc(C(=O)Nc2cccc(/C=C/C(=O)c3ccc(C4CCCCC4)cc3)c2)cc1`, the IC90 was 9.2 µM. Besides, the pIC50 under setting [1] is 5.12.

Regarding `CCN(CC)S(=O)(=O)c1cccc(C(=O)c2c(C)c(Sc3ccc(Cl)cc3)c3ccccn23)c1`, the IC90 is more than 10 µM. Moreover, for the setting “FFLUC_HILL_SLOPE 1.47, FFLUC_R_SQUARED 0.14, read-out: LUCIFERASE INFECTION ASSAY - IC50”, the pIC50 was less than 5.00.

As to `CCCc1cc(NCCN(C)C)n2ncc(-c3ccccc3)c2n1`, the IC90 was more than 10.2 µM. For the same molecule, for the setting “PBLUC_HILL_SLOPE 2.98, PBLUC_R_SQUARED 0.437, read-out: LUCIFERASE INFECTION ASSAY - IC50”, the pIC50 is 5.31.

For the molecule `FC(F)(F)c1ccc(NCCNc2ccc(C(F)(F)F)cn2)nc1`, the IC90 is 2.55 µM. Under setting [1], the pIC50 was 5.91.

`CC(=O)c1cccc(-c2cnc3ccc(Cc4ccc(F)cc4)nn23)c1`: the IC90 was found to be 5.55 µM. In addition, the pIC50 (HEPG2TOX_HILL_SLOPE 0.753, HEPG2TOX_R_SQUARED 0.0911, PBLUC_HILL_SLOPE 6.85, PBLUC_R_SQUARED 0.304, read-out: LUCIFERASE INFECTION ASSAY - IC50) was 5.40.

`CNc1nc2cnc(Nc3ccc(Oc4ccccc4)cc3)cc2n1C`: the IC90 is more than 10 µM. Besides, the pIC50 under setting [1] is less than 5.00.

For the molecule `Cc1cccc2nc(C(=O)Nc3ccc4c(c3)nc3n4CCCCC3)cn12`, the IC90 is more than 10 µM. Where the note is “FFLUC_HILL_SLOPE 1.04, FFLUC_R_SQUARED 0.903, PBLUC_HILL_SLOPE 0.368, PBLUC_R_SQUARED 0.555, read-out: LUCIFERASE INFECTION ASSAY - IC50”, the pIC50 is 6.80.

On to `O=C(CSc1nnc(-c2c[nH]c3ccccc23)n1C1CC1)Nc1ccccc1N1CCCC1`, for which the IC90 was more than 10 µM. The pIC50 (HEPG2TOX_HILL_SLOPE 1.91, HEPG2TOX_R_SQUARED 0.598, PBLUC_HILL_SLOPE 0.845, PBLUC_R_SQUARED 0.661, read-out: LUCIFERASE INFECTION ASSAY - IC50) was 5.44.

Regarding `Cc1cc(C)c(C(=O)OCCC(NS(=O)(=O)c2ccc(Cl)cc2)c2ccccc2)c(C)c1` (stereo unspecified), the IC90 was more than 10 µM. For the same molecule, under setting [1], the pIC50 is less than 5.00.

For the molecule `COc1ccc(NS(=O)(=O)c2cc([N+](=O)[O-])ccc2N/N=C(\C)c2ccc(S(=O)(=O)NCc3ccco3)cc2)cc1`, the IC90 came out at 4.99 µM. Also, the pIC50 (HEPG2TOX_HILL_SLOPE 4.01, HEPG2TOX_R_SQUARED 0.968, PBLUC_HILL_SLOPE 8.16, PBLUC_R_SQUARED 0.206, read-out: LUCIFERASE INFECTION ASSAY - IC50) was 5.42.

One may read the pIC50 as −log10 of the IC50, conventionally taken in molar units. One may read the IC90 as the point of the concentration-response curve where the effect stands at 90%.
